“Also recorded” adds a separate entry of the source.
What was measured:
Assay type in all cases: biochemical
human 9cRDH (h9cRDH) [1] = biological target: T1, human 9cRDH (h9cRDH) (Homo sapiens, UniProt Q92781); assay: Retinaldehyde isomer reduction by recombinant human 9cRDH; settings: for h9cRDH specific activity, retinaldehyde reduction: substrate 10 μM, 15 min, 150–180 μg protein/assay, NADH, pH 5.0
T1 sequence (Q92781 1-318): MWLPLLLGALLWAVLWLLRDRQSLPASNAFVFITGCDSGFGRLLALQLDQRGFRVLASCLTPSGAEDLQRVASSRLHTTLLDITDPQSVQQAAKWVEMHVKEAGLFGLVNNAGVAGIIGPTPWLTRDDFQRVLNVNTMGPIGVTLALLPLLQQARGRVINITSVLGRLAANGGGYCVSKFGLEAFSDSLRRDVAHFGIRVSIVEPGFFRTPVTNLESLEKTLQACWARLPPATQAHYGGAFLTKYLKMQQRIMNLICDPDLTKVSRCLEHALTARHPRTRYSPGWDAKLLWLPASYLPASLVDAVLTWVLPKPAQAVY
Procedure: (§1) Enzymatic Assays. Assays for human and mouse 9cRDH were carried out essentially as were described previously for human 9cRDH (19). For expression of mouse 9cRDH a cDNA clone obtained from a mouse liver cDNA library was employed (see below). Recombinant human or mouse 9cRDH expressed in CHO cells was incubated in an assay mixture containing 10 μM 9-cis-retinol (added in 0.02 mL ethanol) and 2 mM NAD in 10 mM Hepes, pH 8.0, containing 150 mM KCl, 1 mM EDTA, and 50 μg phosphotidyl choline for 15 min at 37° C. (final assay volume of 0.6 ml) with agitation. This assay mixture was used routinely to measure oxidation of 9-cis-retinol to 9-cis-retinaldehyde and in studies assessing oxidation of 11-cis-, 13-cis- and all-trans-retinol to their corresponding aldehydes. For some experiments, the ability of human or mouse 9cRDH to catalyze the reduction of 9-cis-, 11-cis-, 13-cis- or all-trans-retinaldehyde was assessed. To assess these reduction reactions, incubations were carried out in 100 mM sodium acetate, pH 5.0, containing 50 μg phosphotidyl choline and 2 mM NADH (or 2 mM NADPH) in a final volume of 0.6 ml for 15 min at 37° C.
(§2) Immediately following incubation of the assay, the assay mixture was denatured with an equal volume of absolute ethanol (0.6 ml), and the retinoids extracted into 2.5 ml of hexane. Following one backwash of the hexane extract with 0.5 ml of deionized water, the hexane was evaporated to dryness under a gentle stream of N2. The extracted retinoids were immediately redissolved in 120 μl of hexane and analyzed by normal phase HPLC as described below.

mouse 9cRDH (m9cRDH) [2] = biological target: T2, mouse 9cRDH (m9cRDH) (Mus musculus, UniProt O55240); assay: Retinaldehyde isomer reduction by recombinant mouse 9cRDH; settings: for m9cRDH specific activity, retinaldehyde reduction: substrate 10 μM, 15 min, 150–180 μg protein/assay, NADH, pH 5.0
T2 sequence (O55240 1-318): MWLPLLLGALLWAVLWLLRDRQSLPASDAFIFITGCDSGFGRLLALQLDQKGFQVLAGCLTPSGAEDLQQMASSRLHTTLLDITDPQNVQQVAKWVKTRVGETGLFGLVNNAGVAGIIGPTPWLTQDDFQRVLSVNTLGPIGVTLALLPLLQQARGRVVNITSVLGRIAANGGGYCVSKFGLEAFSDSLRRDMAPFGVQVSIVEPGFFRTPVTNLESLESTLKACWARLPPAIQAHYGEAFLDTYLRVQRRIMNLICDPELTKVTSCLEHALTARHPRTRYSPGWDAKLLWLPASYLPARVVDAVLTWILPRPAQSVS
Procedure: as §1, §2

human 9cRDH (h9cRDH) [3] = biological target: T1, human 9cRDH (h9cRDH); assay: Retinol isomer oxidation by recombinant human 9cRDH (substrate and cofactor specificity); settings: for h9cRDH specific activity, retinol oxidation: substrate 10 μM, 15 min, 150–180 μg protein/assay, NAD+
Procedure: Enzymatic Assay of Retinol Dehydrogenase Activity. Transfected CHO cell pellets were homogenized in PBS at 4° C. using 50 strokes of a Dounce homogenizer For assay of retinol dehydrogenase activity, aliquots of unfractionated CHO cell homogenate were incubated with 10, μM retinol (either as the all-trans, 13-cis, or 9-cis isomer added in ethanol) and either 2 mM NAD+ or 2 mM NADP+ in 10 mM Hepes containing 150 mM KCl, 1 mM EDTA, and 10, μg/ml phosphotidyl choline at pH 8.0 and 37° C. for prechosen time intervals. The final assay volume was 0.6 ml. Assays were routinely carried out in amber glass tubes that had been flushed with N2 to shield the retinoids from both light and O2 All subsequent extractions and procedures were carried out in a manner that minimized exposure of the retinoids to light and O2.
Immediately following incubation, the assay mixture was denatured with an equal volume of absolute ethanol (0.6 ml), and the retinoids were extracted into 3 ml of HPLC grade hexane. Following one backwash of the hexane extract with 0.5 ml of deionized water, the hexane was evaporated to dryness under a gentle stream of N2, and the extracted retinoids were immediately redissolved in 120 μl of hexane and analyzed by normal phase HPLC (see below).
HPLC Procedures. Stereoisomers of both retinol and retinaldehyde were separated on a 4.6×250-mm Vydac 101HS54 silica column using hexane:n-propanol:1-octanol (98.9:1.0:0.1 v/v) flowing at 1.5 ml/min as the mobile phase. The running column was preceded by a silica guard column. Retinols and retinaldehydes were detected by UV absorbance at 350 nm. Retention times for all-trans-, 13-cis-, and 9-cis-retinols were established using purified compounds obtained as described above. Retention times for all-trans-, 13-cis-, and 9-cis-retinaldehyde were determined using commercial standards (Sigma). Quantities of each retinol and retinaldehyde isomer present in extracts were determined by comparisons of the integrated areas under the HPLC peaks with a standard curve constructed relating integrated peak area with known masses of each retinoid isomer. The concentrations of each retinoid isomer were determined by UV-visible spectrophotometry using published extinction coefficients for each retinol and retinaldehyde isomer (26).
as §1, §2

mouse 9cRDH (m9cRDH) [4] = biological target: T2, mouse 9cRDH (m9cRDH); assay: Retinol isomer oxidation by recombinant mouse 9cRDH; settings: for m9cRDH specific activity, retinol oxidation: substrate 10 μM, 15 min, 150–180 μg protein/assay, NAD+
Procedure: as §1, §2

[5] = biological target: T3, human 9-cis retinol dehydrogenase (9cRDH) (Homo sapiens, UniProt Q92781); assay: Inhibition of recombinant human 9cRDH activity (9-cis-retinol oxidation, CHO cell homogenate, HPLC); settings: 10 μM 9-cis-retinol
T3 sequence (Q92781 1-318): T1 sequence (Q92781 1-318)

mouse 9cRDH = biological target: T4, mouse 9cRDH (Mus musculus, UniProt O55240); assay: Inhibition of recombinant mouse 9cRDH activity (9-cis-retinol oxidation, CHO cell homogenate, HPLC); settings: 10 μM 9-cis-retinol
T4 sequence (O55240 1-318): T2 sequence (O55240 1-318)

[6] = equimolar concentrations, any substrate

| Compound | h9cRDH specific activity, retinaldehyde reduction (human 9cRDH (h9cRDH) [1]) [pmol/min/mg protein] | m9cRDH specific activity, retinaldehyde reduction (mouse 9cRDH (m9cRDH) [2]) [pmol/min/mg protein] | h9cRDH specific activity, retinol oxidation (human 9cRDH (h9cRDH) [3]) [pmol/min/mg protein] | m9cRDH specific activity, retinol oxidation (mouse 9cRDH (m9cRDH) [4]) [pmol/min/mg protein] | also measured |
| --- | --- | --- | --- | --- | --- |
| CC1=C(/C=C/C(C)=C\C=C\C(C)=C\C=O)C(C)(C)CCC1 [9-cis-retinaldehyde] | 268 | 420 | – | – | – |
| CC1=C(/C=C/C(C)=C\C=C\C(C)=C\CO)C(C)(C)CCC1 [9-cis-retinol] | – | – | 367 | 328 | oxidation to the corresponding retinaldehyde by transfected CHO cell homogenate (in words) (human 9cRDH (h9cRDH) [3]; 2 mM NAD+): avidly oxidized; share of the added retinol oxidized to retinaldehyde by CHO cell homogenate (human 9cRDH (h9cRDH) [3]; in assay concentration 10 μM): Over 60%; rate of oxidation by mouse enzyme as multiple of the rate of 11-cis-retinol oxidation (mouse 9cRDH (m9cRDH) [4]): 2 times |
| CC1=C(/C=C/C(C)=C/C=C\C(C)=C\C=O)C(C)(C)CCC1 [11-cis-retinaldehyde] | 1220 | 506 | – | – | – |
| CC1=C(/C=C/C(C)=C/C=C\C(C)=C\CO)C(C)(C)CCC1 [11-cis-retinol] | – | – | 442 | 152 | – |
| CC1=C(/C=C/C(C)=C/C=C/C(C)=C\C=O)C(C)(C)CCC1 [13-cis-retinaldehyde] | 744 | 748 | – | – | – |
| NC(=O)c1ccc[n+]([C@@H]2O[C@H](COP(=O)([O-])OP(=O)(O)OC[C@H]3O[C@@H](n4cnc5c(N)ncnc54)[C@H](OP(=O)(O)O)[C@@H]3O)[C@@H](O)[C@H]2O)c1 [NADP+] | – | – | – | – | cofactor activity relative to NAD+ for 9-cis-retinol oxidation (human 9cRDH (h9cRDH) [3]; both at 2 mM): 8%; reaction rate supported relative to NAD+, human 9cRDH retinol oxidation (human 9cRDH (h9cRDH) [3]; [6]): ≤ 10%; reaction rate supported relative to NAD+, mouse 9cRDH retinol oxidation (mouse 9cRDH (m9cRDH) [4]; [6]): ≤ 10% |
| NADPH | – | – | – | – | reaction rate supported relative to NADH, human 9cRDH retinaldehyde reduction (human 9cRDH (h9cRDH) [1]; [6]): ≤ 10%; reaction rate supported relative to NADH, mouse 9cRDH retinaldehyde reduction (mouse 9cRDH (m9cRDH) [2]; [6]): ≤ 10% |

Now from value to compound, other results behind:

| h9cRDH specific activity, retinaldehyde reduction (human 9cRDH (h9cRDH) [1]) [pmol/min/mg protein] | m9cRDH specific activity, retinaldehyde reduction (mouse 9cRDH (m9cRDH) [2]) [pmol/min/mg protein] | h9cRDH specific activity, retinol oxidation (human 9cRDH (h9cRDH) [3]) [pmol/min/mg protein] | m9cRDH specific activity, retinol oxidation (mouse 9cRDH (m9cRDH) [4]) [pmol/min/mg protein] | Compound | also measured |
| --- | --- | --- | --- | --- | --- |
| – | – | 0.3 | 2.0 | CC1=C(/C=C/C(C)=C/C=C/C(C)=C\CO)C(C)(C)CCC1 [13-cis-retinol] | rate of oxidation relative to that observed for 9-cis-retinol (human 9cRDH (h9cRDH) [3]; first series, 2 mM NAD+, 10 μM retinol): 10% |
| – | – | 0.5 | 0.6 | CC1=C(/C=C/C(C)=C/C=C/C(C)=C/CO)C(C)(C)CCC1 [all-trans Retinol, All-trans-retinol] | inhibition of human 9cRDH activity (in words) ([5]; listed as all-trans retinol): did not inhibit; inhibition of human 9cRDH activity (in words) ([5]; listed as all-trans-retinol): only very weak inhibitors; also recorded: did not inhibit; inhibition of mouse 9cRDH activity (in words) (mouse 9cRDH): only very weak inhibitors; oxidation to the corresponding retinaldehyde by transfected CHO cell homogenate (in words) (human 9cRDH (h9cRDH) [3]; 2 mM NAD+): unable to catalyze the oxidation |
| 1.1 | 1.3 | – | – | CC1=C(/C=C/C(C)=C/C=C/C(C)=C/C=O)C(C)(C)CCC1 [all-trans-retinaldehyde] | – |
